Results published in ChEMBL document CHEMBL5223175, “Discovery of novel 2-oximino-2-indolylacetamide derivatives as potent anticancer agents capable of inducing cell autophagy and ferroptosis” (Bioorg Med Chem, 2023).
Active and inactive are the calls of the source. The rule behind the calls is not given here.

What was measured:
5-8F [1] = test: Downregulation of p-AKT expression in human 5-8F cells at 10 to 30 uM by Western blotting analysis; assay type: functional, cell-based; details: dose 10-30 µM
5-8F [2] = test: Induction of ferroptosis in human 5-8F cells assessed as decrease in GPx4 expression at 10 to 30 uM incubated for 48 hrs in presence of Fer-1 by Western blotting analysis; assay type: functional, cell-based; details: dose 10-30 µM
5-8F [3] = test: Antitumor activity against human 5-8F cells xenografted in BALB/c mouse assessed as tumor growth inhibition at 10 to 20 mg/kg, ip administered daily; assay type: functional, organism-based; details: dose 10-20 mg/kg
5-8F [4] = test: Antitumor activity against human 5-8F cells xenografted in BALB/c mouse assessed as decrease in GPx4 expression at 10 to 20 mg/kg, ip administered daily; assay type: functional, organism-based; details: dose 10-20 mg/kg
5-8F [5] = test: Induction of autophagy in human 5-8F cells assessed as decrease in p62 expression at 10 to 30 uM by Western blotting analysis; assay type: functional, cell-based; details: dose 10-30 µM
5-8F [6] = test: Induction of ferroptosis in human 5-8F cells assessed as appearance of mitochondrial pyknosis at 30 uM incubated for 48 hrs by TEM analysis; assay type: functional, cell-based
5-8F [7] = test: Induction of autophagy in human 5-8F cells assessed as appearance of autophagic vacuoles at 30 uM incubated for 48 hrs by TEM analysis; assay type: functional, cell-based
5-8F [8] = test: Antiproliferative activity against human 5-8F cells assessed as reduction in Ki67 expression at 10 to 30 uM by Western blotting analysis; assay type: functional, cell-based; details: dose 10-30 µM
5-8F [9] = test: Downregulation of STAT3 phosphorylation in human 5-8F cells at 10 to 30 uM incubated for 48 hrs by Western blotting analysis; assay type: functional, cell-based; details: dose 10-30 µM
SK-HEP1 = test: Antiproliferative activity against human SK-HEP1 cells assessed as cell viability at 80 uM incubated for 72 hrs by CCK-8 assay; assay type: functional; details: read-out: Activity
5-8F [10] = test: Induction of apoptosis in human 5-8F cells assessed as upregulation of Bax expression at 10 to 30 uM incubated for 48 hrs by Western blotting analysis; assay type: functional, cell-based; details: dose 10-30 µM
5-8F [11] = test: Induction of ferroptosis in human 5-8F cells assessed as appearance of pseudo inclusion bodies at 30 uM incubated for 48 hrs by TEM analysis; assay type: functional, cell-based
5-8F [12] = test: Upregulation of p38 MAPK phosphorylation in human 5-8F cells at 10 to 30 uM by Western blotting analysis; assay type: functional, cell-based; details: dose 10-30 µM
5-8F [13] = test: Antiproliferative activity against human 5-8F cells assessed as cell viability at 80 uM incubated for 72 hrs by CCK-8 assay; assay type: functional; details: read-out: Activity
5-8F [14] = test: Downregulation of p-mTOR expression in human 5-8F cells at 10 to 30 uM by Western blotting analysis; assay type: functional, cell-based; details: dose 10-30 µM
5-8F [15] = test: Induction of apoptosis in human 5-8F cells assessed as upregulation of p53 expression at 10 to 30 uM incubated for 48 hrs by Western blotting analysis; assay type: functional, cell-based; details: dose 10-30 µM
[16] = Toxicity in BALB/c mouse xenografted with human 5-8F cells assessed as change in spleen morphology at 10 to 20 mg/kg, ip administered daily by H and E staining based assay; assay type: organism-based; details: in vivo, dose 10-20 mg/kg
5-8F [17] = test: Antitumor activity against human 5-8F cells xenografted in BALB/c mouse assessed as decrease in tumor weight at 10 to 20 mg/kg, ip administered daily; assay type: functional, organism-based; details: dose 10-20 mg/kg
CAL-27 [18] = test: Antiproliferative activity against human CAL-27 cells assessed as reduction in cell viability at 5 to 40 uM incubated for 48 hrs by CCK-8 assay; assay type: functional, cell-based; details: dose 5-40 µM
5-8F [19] = test: Induction of apoptosis in human 5-8F cells assessed as increase in dead cells incubated for 48 hrs by microscopic analysis; assay type: functional, cell-based; details: dose 10-30 µM
5-8F [20] = test: Induction of apoptosis in human 5-8F cells assessed as downregulation of procaspase-3 expression at 10 to 30 uM incubated for 48 hrs by Western blotting analysis; assay type: functional, cell-based; details: dose 10-30 µM
5-8F [21] = test: Induction of autophagy in human 5-8F cells assessed as increase in LC3I to LC3II conversion at 10 to 30 uM by Western blotting analysis; assay type: functional, cell-based; details: dose 10-30 µM, time 48.0 hrs
5-8F [22] = test: Antiproliferative activity against human 5-8F cells assessed as reduction in cell viability incubated for 72 hrs by CCK-8 assay; assay type: functional, cell-based
5-8F [23] = test: Induction of ferroptosis in human 5-8F cells assessed as decrease in GSH level at 10 to 30 uM incubated for 48 hrs by Western blotting analysis; assay type: functional, cell-based; details: dose 10-30 µM
[24] = Toxicity in BALB/c mouse xenografted with human 5-8F cells assessed as change in lung morphology at 10 to 20 mg/kg, ip administered daily by H and E staining based assay; assay type: organism-based; details: in vivo, dose 10-20 mg/kg
5-8F [25] = test: Induction of autophagy in human 5-8F cells assessed as increase in Beclin-1 expression at 10 to 30 uM by Western blotting analysis; assay type: functional, cell-based; details: dose 10-30 µM
5-8F [26] = test: Antiproliferative activity against human 5-8F cells assessed as decrease in cell viability at 30 uM incubated for 48 hrs in presence of Era; assay type: functional, cell-based
HeLa = test: Antiproliferative activity against human HeLa cells assessed as cell viability at 80 uM incubated for 72 hrs by CCK-8 assay; assay type: functional; details: read-out: Activity
5-8F [27] = test: Induction of ROS generation in human 5-8F cells at 30 uM pretreated with NAC for 2 hrs followed by compound addition and measured after 48 hrs by DCFH-DA staining based flow cytometry analysis; assay type: functional, cell-based
5-8F [28] = test: Induction of ferroptosis in human 5-8F cells assessed as increase in membrane density at 30 uM incubated for 48 hrs by TEM analysis; assay type: functional, cell-based
5-8F [29] = test: Induction of ROS generation in human 5-8F cells at 10 to 30 uM after 48 hrs by DCFH-DA staining based flow cytometry analysis; assay type: functional, cell-based; details: dose 10-30 µM
5-8F [30] = test: Induction of apoptosis in human 5-8F cells assessed as appearance of floating cells incubated for 48 hrs by microscopic analysis; assay type: functional, cell-based; details: dose 10-30 µM
5-8F [31] = test: Induction of ferroptosis in human 5-8F cells assessed as appearance of vacuoles at 30 uM incubated for 48 hrs by TEM analysis; assay type: functional, cell-based
5-8F [32] = test: Induction of ROS generation in human 5-8F cells at 10 to 30 uM after 48 hrs by fluorescence microscopy analysis; assay type: functional, cell-based; details: dose 10-30 µM
5-8F [33] = test: Induction of ferroptosis in human 5-8F cells assessed as appearance of […] at 30 uM incubated for 48 hrs by TEM analysis; assay type: functional, cell-based
5-8F [34] = test: Induction of autophagy in human 5-8F cells assessed as increase in LC3 puncta accumulation at 30 uM incubated for 48 hrs by confocal microscopy analysis; assay type: functional, cell-based
5-8F [35] = test: Inhibition of colony formation in human 5-8F cells at 10 to 30 uM replaced with fresh medium for every 3 days and measured for 10 to 15 days by Giemsa staining based assay; assay type: functional, cell-based; details: dose 10-30 µM, time 10-15 day
CAL-27 [36] = test: Antiproliferative activity against human CAL-27 cells assessed as reduction in Ki67 expression at 10 to 30 uM by Western blotting analysis; assay type: functional, cell-based; details: dose 10-30 µM
[37] = Toxicity in BALB/c mouse xenografted with human 5-8F cells assessed as decrease in body weight at 10 to 20 mg/kg, ip administered daily; assay type: organism-based; details: in vivo, dose 10-20 mg/kg
5-8F [38] = test: Induction of ferroptosis in human 5-8F cells assessed as appearance of widened gabs between cristae at 30 uM incubated for 48 hrs by TEM analysis; assay type: functional, cell-based

## Cn1cc(/C(=N\O)C(=O)Nc2ccc(Cl)cc2)c2ccccc21
5-8F [1]
  Activity: Active
5-8F [2]
  Activity: inactive
5-8F [3]
  Activity: Active
5-8F [4]
  Activity: Active
5-8F [5]
  Activity: Active
5-8F [6]
  Activity: Active
5-8F [7]
  Activity: Active
5-8F [8]
  Activity: Active
5-8F [9]
  Activity: Active
SK-HEP1
  viability at 80 µM: 20.9%
5-8F [10]
  Activity: Active
5-8F [11]
  Activity: Active
5-8F [12]
  Activity: Active
5-8F [13]
  viability at 80 µM: 7.8%
5-8F [14]
  Activity: Active
5-8F [15]
  Activity: Active
[16]
  Activity: Non-Toxic
5-8F [17]
  Activity: Active
CAL-27 [18]
  Activity: Active
5-8F [19]
  Activity: Dose-Dependent Effect
5-8F [20]
  Activity: Active
5-8F [21]
  Activity: Active
5-8F [22]
  IC50: 9.43 µM
5-8F [23]
  Activity: Active
[24]
  Activity: Non-Toxic
5-8F [25]
  Activity: Active
5-8F [26]
  Activity: Active
HeLa
  viability at 80 µM: 12.3%
5-8F [27]
  Activity: inactive
5-8F [28]
  Activity: Active
5-8F [29]
  Activity: Active
5-8F [30]
  Activity: Dose-Dependent Effect
5-8F [31]
  Activity: Active
5-8F [32]
  Activity: Active
5-8F [33]
  Activity: Active
5-8F [34]
  Activity: Active
5-8F [35]
  inhibition: Active
CAL-27 [36]
  Activity: Active
[37]
  Activity: Non-Toxic
5-8F [38]
  Activity: Active
